# Source: patent publication US20230172940A1, “METHODS OF EXTENDING LIFESPAN BY ADMINISTERING FERROPTOSIS INHIBITORS” (COLLABORATIVE MEDICINAL DEVELOPMENT, LLC, priority 2020, published 2023)
# Values joined by “and” are separate entries in the source; they are usually repeats but may differ in a detail not shown here. Equal values may be shown once. Where a name gives a salt, the structure may show the parent alone. Marks after values point to notes of the source that are not given here.
# Tests used:
# C. elegans [1] = details: DEM at 10-100 μM, minor glutathione loss; cited from earlier work
# C. elegans iron-proteome = assay: Size exclusion chromatography-ICP-MS of soluble iron; assay type: in vivo, Caenorhabditis elegans; details: aged C. elegans (10 days post adulthood)
# Experimental: Liquid chromatography was performed using established protocols. Briefly^o samples of aged C. elegans were lysed using a Bioruptor Next Gen (Diagenode) bath sonicator set on HIGH and cooled to 4° C. using 10 cycles of 10 sec ON and 10 sec OFF^o in a 1:1 volume ratio of Tris-buffered saline (pH 8.0) with added proteinase inhibitors (EDTA-free; Roche). Sample homogenization was confirmed by microscopic inspection. Lysates were then centrifuged for 15 min at 175^o000 g at 4° C. The supernatant was removed and total protein concentration in the soluble fraction was determined using a NanoDrop UV spectrometer (Thermo Fisher Scientific) before being transferred to standard chromatography vials with polypropylene inserts (Agilent Technologies) and kept at 4° C. on a Peltier cooler for analysis. Size exclusion chromatography-inductively coupled plasma-mass spectrometry was performed using an Agilent Technologies 1100 Series liquid chromatography system with a BioSEC 5 SEC column (5 μm particle size^o 300 Å pore size^o I.D. 4.6 mm^o Agilent Technologies) and 7700× Series ICP-MS as previously described (Hare et al.^o 2016b). A buffer of 200 mM NH4NO3 was used for all separations at a flow rate of 0.4 mL min^−1. A total of 50 μg of soluble protein was loaded onto the column by manually adjusting the injection volume for each sample. Mass-to-charge ratios (m/z) for phosphorus (31) and iron (56) were monitored in time resolved analysis mode. Plots of the mean (±standard deviation) of three independent biological replicates are shown. Integration of the three major peaks was performed using Prism (ver. 7 for Mac OS X, Graphpad).
# C. elegans [2] = assay: Temporal rescaling by temperature: lifespan at 20° C. and 25° C.; assay type: in vivo, Caenorhabditis elegans
# Experimental: The effect of temperature is evaluated separately for control and SIH treated worms, population sizes for each replicate are shown in Table 20.
# For each of two replicates and treatment factors, the AFT model with Weibull baseline hazard was fitted with temperature as the covariate. The residuals from this model were then subjected to the K-S test.
# For both populations, being exposed to the higher temperature of 25° C. accelerates life as expected, by approximately 30% for control worms (Otemp=0.72 (95% Cl: 0.68; 0.77) and 20% for SIH worms (Otemp=0.81 (95% Cl: 0.78; 0.84).
# C. elegans strain TJ1060 = assay: Lifespan determination; assay type: in vivo, Caenorhabditis elegans; details: for average increase in median lifespan: 8 independent replicates, 200 μM Lip-1 or 250 μM SIH; for effect on survival curve: in vivo
# Experimental: Lifespan was measured using established protocols. SIH was dissolved in neat dimethyl sulfoxide (DMSO; Sigma-Aldrich) then added to the molten NGM at 55° C. (to a final concentration of 250 μM SIH in 0.5% v/v DMSO). Lip-1 was dissolved in neat DMSO then added to the molten NGM at 55° C. (to a final concentration of 200 μM Lip-1 in 0.5% v/v DMSO). Media containing equivalent vehicle alone (0.5% v/v DMSO) was used for comparison. Standard overnight culture of the Escherichia coli (E. coli) strain OP50 was used as the food source.
# Lifespan data was collected at 25 (±1) ° C. using the temperature sensitive-sterile strain TJ1060 [spe-9(hc88); fer-15(b26)]. A synchronous population was obtained by transferring egg-laying adults to fresh plates at 16° C. for 2-3 hours. The adults were removed and the plates with eggs then transferred to 25° C. to ensure sterility. After 48 hours at 25° C., when worms were at the late L4/young adult stage, 25-35 nematodes were transferred to fresh plates containing either vehicle control, 250 μM SIH, or 200 μM Lip-1. All plates were coded to allowing blinding of the experimenter to the treatment regime during scoring. Nematodes were scored for survival at one to three-day intervals and transferred to freshly prepared plates as needed (2-5 days).
# It is well documented that differences are observed between independent measures of lifespan, with micro-environmental factors such as minor temperature fluctuations potentially resulting differences in median and maximum lifespan between replicates. After determining the optimal doses of 250 μM SIH and 200 μM Lip-1, respectively, cohorts of nematodes were compared in 8 independent replicates. As the number of worms measured is known to influence the likelihood of accurately observing differences in lifespan, the starting populations for all treatments within experiments were in excess of 70 individuals.
# C. elegans [3] = assay: Antibiotic tests: lifespan with ampicillin co-administration; assay type: in vivo, Caenorhabditis elegans
# Experimental: To determine whether the increased lifespan seen with SIH treatment could be explained solely by an antibiotic effect of iron reduction, nematodes were treated with ampicillin, with and without SIH co-administration. Even in the presence of ampicillin, SIH increased median lifespan by 6 days, similar to its benefits in the absence of ampicillin (median increase of 7 days).
# [4] = 250 μM SIH, days of adulthood at 25 (±1)° C, single replicate experiments 1-8
# [5] = 200 μM Lip-1, days of adulthood at 25 (±1)° C, single replicate experiments 1-8
compound,measurement,setting,value
"CCOC(=O)/C=C\C(=O)OCC [DEM, Diethyl maleate]",effect on lifespan as reported,C. elegans [1],increasing lifespan via hormesis
"O=C(N/N=C/c1ccccc1O)c1ccncc1 [SIH, Salicylaldehyde isonicotinoyl hydrazone]","Ferritin-bound iron, normalized peak area",C. elegans iron-proteome,approximately 50%
same,"iron associated with the LMW peak, normalized peak area",C. elegans iron-proteome,approximately 40%
same,iron bound within HMW species,C. elegans iron-proteome,unaffected
same,lifespan extension at two temperatures,C. elegans [2],still extended lifespan by a similar dimension
same,"% median Ý, Mean of 8 replicates",C. elegans strain TJ1060; 250 μM SIH,+101%
same,"max lifespan, Mean of 8 replicates","C. elegans strain TJ1060; 250 μM SIH, 25 (±1)° C",22 days
same,"median lifespan, Mean of 8 replicates","C. elegans strain TJ1060; 250 μM SIH, 25 (±1)° C",16 days
same,max lifespan,C. elegans strain TJ1060; [4],19 days (2×) and 23 days and 20 days and 18 days and 24 days and 29 days and 26 days
same,median lifespan,C. elegans strain TJ1060; [4],14* days (4×) and 16* days (2×) and 17* days and 20* days
same,% median Ý (median lifespan vs control),"C. elegans strain TJ1060; 250 μM SIH, single replicate experiments 1-8",100% and 75% (2×) and 78% and 129% and 56% and 143% and 150%
same,average increase in median lifespan,C. elegans strain TJ1060,~100%
same,effect on survival curve,C. elegans strain TJ1060,extended mid-life with a squaring of the survival curve
same,lifespan extension on co-administration,C. elegans [3]; SIH and the antibiotic ampicillin co-administered,additive effect on media lifespan extension
same,increase of median lifespan,C. elegans [3]; SIH in the absence of ampicillin,7 days
same,increase of median lifespan,C. elegans [3]; SIH in the presence of ampicillin,6 days
"Clc1cccc(CNC2=Nc3ccccc3NC23CCNCC3)c1 [Lip-1, N-[(3-chlorophenyl)methyl]-spiro[piperidine-4,2′(1′H)-quinoxalin]-3′-amine]","% median Ý, Mean of 8 replicates",C. elegans strain TJ1060; 200 μM Lip-1,+72%
same,"max. lifespan, Mean of 8 replicates","C. elegans strain TJ1060; 200 μM Lip-1, 25 (±1)° C",25 days
same,"median lifespan, Mean of 8 replicates","C. elegans strain TJ1060; 200 μM Lip-1, 25 (±1)° C",13 days
same,max. lifespan,C. elegans strain TJ1060; [5],25 days (2×) and 20 days and 24 days (2×) and 26 days (2×) and 27 days
same,median lifespan,C. elegans strain TJ1060; [5],13* days and 11† days and 14* days (4×) and 12* days and 15* days
same,% median Ý (median lifespan vs control),"C. elegans strain TJ1060; 200 μM Lip-1, single replicate experiments 1-8",86% and 38% and 56% (2×) and 100% and 50% and 114% and 75%
same,average increase in median lifespan,C. elegans strain TJ1060,~70%
same,effect on survival curve,C. elegans strain TJ1060,primarily altered late life survival
